This note sets out measurements from patent publication US9023844B2, “Heterocyclylpyri (mi) dinylpyrazole as fungicidals” (Bayer Intellectual Property GmbH, priority 2011, dated 2015).

What is called LogP is a log measure of how a compound divides between an organic and an aqueous phase. A high value points to higher lipophilicity.

Series [1] deals with Septoria tritici. Kind of series: Example J: Septoria tritici test (wheat) / preventive. It is filed as in vivo.
In series [2] the test system is Pyricularia oryzae. It is filed as in vivo.
Series [3] deals with Leptosphaeria nodorum. Kind of series: Example C: Leptosphaeria test (wheat) / preventive. Format: in vivo.
For series [4], the system named is Sphaerotheca fuliginea. Kind of series: Example A: Sphaerotheca test (cucumber) / preventive. It is filed as in vivo.
Series [5] relates to Plasmopara viticola. In words: Example H: Plasmopara test (grapevines) / preventive. It is filed as in vivo.
A short description of series [6]: Determination of log P values by HPLC on a reverse phase column (C18), EEC-Directive 79/831 Annex V.A8 (Methods A, B, C). It is filed as physicochemical. The following applies: for chromatographic logP: reverse phase C18 HPLC column. The procedure, abridged:
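Three C18 chromatographic methods following EEC-Directive 79/831 Annex V.A8 gave the logP values. Method C (UPLC, 2.1 mm column) ran at 40 °C and 0.8 mL/min with a 3.25 min 10–95% acetonitrile gradient. Methods A and B both ran at 55 °C and 2.0 mL/min, with gradients of 10–95% in 4.25 min and 5–95% in 1.70 min.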

The subject of series [7] is DON/Acetyl-DON production by Fusarium graminearum. In words: microbe, parasite or virus in culture. Format: cell-based.
Series [8] deals with Fusarium graminearum. Kind of series: microbe, parasite or virus in culture. Format: cell-based.
Series [9] deals with Pyrenophora teres. Kind of series: Example D: Pyrenophora test (barley) / preventive. It is filed as in vivo.
Series [10] has as its system Puccinia recondita. In words: Example E: Puccinia test (wheat) / preventive. It is filed as in vivo.
Series [11] has as its system Fusarium graminearum. Format: in vivo.
Series [12] relates to Uromyces appendiculatus. Kind of series: Example B: Uromyces test (beans) / preventive. Format: in vivo.
The test system of series [13] is Venturia inaequalis. Kind of series: Example I: Venturia test (apples) / preventive. As to conditions: 100 ppm of active ingredient, preventive spray, evaluated 10 days after inoculation.
Procedure: After the spray coating has dried on, the plants are inoculated with an aqueous conidia suspension of the causal agent of apple scab (Venturia inaequalis) and then remain for 1 day in an incubation cabinet at approximately 20° C. and a relative atmospheric humidity of 100%.
The plants are then placed in a greenhouse at approximately 21° C. and a relative atmospheric humidity of approximately 90%.
The test is evaluated 10 days after the inoculation.
Series [14] has as its system Phytophthora infestans. It is filed as in vivo.
For series [15], the system named is Fusarium nivale (var. majus). In words: Example K: Fusarium nivale (var. majus) test (wheat) / preventive. It is filed as in vivo. As to conditions: 500 ppm of active ingredient, preventive spray, evaluated 5 days after inoculation. Here is the method:
After the spray coating has been dried, the plants are slightly injured by using a sandblast and afterwards they are sprayed with a conidia suspension of Fusarium nivale (var. majus).
The test is evaluated 5 days after the inoculation.

[16] abbreviates: Method B (HPLC, reverse phase C18).
Setting [17] is: Method A: HPLC, reverse phase C18, acetonitrile (0.1% formic acid)/water (0.09% formic acid) gradient.
Setting [18] is: 500 ppm of active ingredient, wheat, preventive spray, evaluated 7-9 days after inoculation.

Where two headings read alike, the source gives them in different places.

As for `CC(C)C(=O)Nc1cc(-c2c(-c3ccc(F)cc3)nn3c2OCCC3)ccn1` [Example 22], the efficacy worked out at 100% in series [1] (in vivo); 94% in series [2] (in vivo); 90% in series [3] (in vivo); 100% in series [4] (in vivo); 100% in series [5] (in vivo); 95% in [9] (in vivo). Also, the efficacy in series [10] (in vivo) is on record as 100%; in series [11] (in vivo), 100%; in series [12] (in vivo), 94%; in series [13], 99%; in [14] (in vivo) it was 95%; in [15], 100%. Moreover, the LogP in series [6] (setting [16]) was 1.54. Further, the “Inhibition of DON/AcDON in %” value in [7] (at 50 μM) is 100%. Further, the “Growth inhibition of Fusarium graminearum in %” value (“Growth inhibition … in %” below) in series [8] (at 50 μM) is listed as 99%.
Take `CCOC(=O)Nc1cc(-c2c(-c3ccccc3)nn3c2OCCC3)ccn1` [Example 9]: the efficacy was found to be 80% in series [1] (in vivo); 94% in series [2] (in vivo); 95% in [3] (in vivo); 95% in series [4] (in vivo); 94% in series [5] (in vivo); 100% in series [9] (in vivo). Also, the efficacy came out at 100% in series [10] (in vivo); 100% in [11] (in vivo); 94% in [12] (in vivo); 100% in [13]; 95% in series [14] (in vivo); 93% in series [15]. In addition, in series [6] (setting [16]), the LogP was found to be 1.51. Also, the “Inhibition of DON/AcDON in %” value in [7] (at 50 μM) is 100%. In addition, the “Growth inhibition … in %” value in series [8] (at 50 μM) was 100%.
`CCC(=O)N(C(=O)CC)c1cc(-c2c(-c3ccc(F)cc3)nn3c2OCCC3)ccn1` [Example 53]: the efficacy in series [1] (in vivo) turned out to be 75%; in series [2] (in vivo) it was 90%; in [3] (in vivo), 90%; in series [4] (in vivo), 95%; in [5] (in vivo) it was 98%; in series [9] (in vivo), 100%. Further, the efficacy turned out to be 95% in series [10] (in vivo); 100% in series [11] (in vivo); 74% in series [12] (in vivo); 100% in series [13]; 95% in [14] (in vivo); 100% in series [15]. Also, the LogP in series [6] (setting [17]) is listed as 2.74. In addition, in series [7] (at 50 μM), the “Inhibition of DON/AcDON in %” value turned out to be 100%. In [8] (at 50 μM), the “Growth inhibition … in %” value was found to be 79%.
Turning to `CCC(=O)Nc1cc(-c2c(-c3ccc(F)cc3)nn3c2OCCC3)ccn1` [Example 5], the efficacy in series [1] (in vivo) is recorded as 92%; in series [2] (in vivo), 100%; in series [3] (in vivo), 90%; in [4] (in vivo) it was 95%; in series [5] (in vivo), 100%; in series [9] (in vivo), 95%. Also, the efficacy in series [10] (in vivo) amounted to 100%; in [11] (in vivo), 100%; in series [12] (in vivo), 93%; in series [13] it was 98%; in series [14] (in vivo), 95%; in series [15], 100%. The LogP in series [6] (setting [17]) is listed as 1.46. In addition, the “Inhibition of DON/AcDON in %” value in series [7] (at 50 μM) is reported as 100%. In [8] (at 50 μM), the “Growth inhibition … in %” value worked out at 62%.
In the case of `O=C(Nc1cc(-c2c(-c3ccc(F)cc3)nn3c2OCCC3)ccn1)C1CC1` [Example 4, N-{4-[2-(4-fluorophenyl)-6,7-dihydro-5H-pyrazolo[5,1-b][1,3]oxazin-3-yl]pyridin-2-yl}cyclo-propanecarboxamide], the efficacy was 80% in series [1] (500 ppm of active ingredient, wheat, preventive spray, evaluated 21 days after inoculation); 100% in series [2] (500 ppm of active ingredient, rice, preventive spray, evaluated 7 days after inoculation); 90% in series [3] (setting [18]); 100% in [4] (500 ppm of active ingredient, cucumber, preventive spray, evaluated 7 days after inoculation); 100% in [5] (100 ppm of active ingredient, grapevines, preventive spray, evaluated 6 days after inoculation); 100% in [9] (500 ppm of active ingredient, barley, preventive spray, evaluated 7-9 days after inoculation). The efficacy in series [10] (setting [18]) is 100%; in [11] (500 ppm of active ingredient, barley, preventive spray, evaluated 5 days after inoculation) it was 100%; in [12] (500 ppm of active ingredient, beans, preventive spray, evaluated 6-8 days after inoculation), 90%; in series [13], 95%; in series [14] (100 ppm of active ingredient, tomatoes, preventive spray, evaluated 3 days after inoculation) it was 94%; in series [15], 100%. The chromatographic logP in [6] (Method B (HPLC, reverse phase C18), read-out: LogP) turned out to be 1.47; in series [6] (pH 2.7, values in the synthesis examples, HPLC, reverse phase C18, read-out: log P (pH 2.7)), 1.39. The inhibition at 50 µM in series [7] (Fusarium graminearum, at 50 μM, read-out: Inhibition of DON/AcDON in %) amounted to 99%; in series [8] (Fusarium graminearum, read-out: Growth inhibition of Fusarium graminearum in %), 69%.
On to `CCC(=O)Nc1cc(-c2c(-c3ccc(F)cc3F)nn3c2OCCC3)ccn1` [Example 35], for which the efficacy in [1] (in vivo) worked out at 100%; in [2] (in vivo), 94%; in series [3] (in vivo), 80%; in [5] (in vivo) it was 95%; in series [9] (in vivo), 95%; in [10] (in vivo), 100%. Moreover, the efficacy in series [11] (in vivo) stood at 100%; in series [12] (in vivo) it was 92%; in [13], 100%; in series [14] (in vivo) it was 99%; in series [15] it was 100%. Further, the LogP in series [6] (setting [16]) turned out to be 1.34. Moreover, the “Inhibition of DON/AcDON in %” value in series [7] (at 50 μM) turned out to be 99%. Moreover, the “Growth inhibition … in %” value in [8] (at 50 μM) is listed as 100%.
Turning to `CC(C)C(=O)Nc1cc(-c2c(-c3ccc(F)cc3)nn3c2OCCC3C)ccn1` (centres unmarked) [Example 62], the efficacy is on record as 75% in [1] (in vivo); 95% in series [2] (in vivo); 100% in series [4] (in vivo); 100% in [5] (in vivo); 95% in [9] (in vivo); 90% in series [10] (in vivo). Also, the efficacy was found to be 100% in series [11] (in vivo); 78% in series [12] (in vivo); 100% in series [13]; 95% in series [14] (in vivo); 100% in [15]. This molecule also gave a LogP in series [6] (setting [17]) of 1.86. For the same molecule, in series [7] (at 50 μM), the “Inhibition of DON/AcDON in %” value was 99%. Further, the “Growth inhibition … in %” value in series [8] (at 50 μM) was 86%.
As for `CCC(=O)Nc1cc(-c2c(-c3ccc(F)cc3)nn3c2OC[Si](C)(C)C3)ccn1` [Example 77], the efficacy was 71% in series [1] (in vivo); 90% in series [2] (in vivo); 94% in series [3] (in vivo); 95% in [4] (in vivo); 100% in series [5] (in vivo); 95% in series [9] (in vivo). Moreover, the efficacy turned out to be 100% in series [10] (in vivo); 100% in [11] (in vivo); 94% in [12] (in vivo); 96% in series [13]; 100% in series [14] (in vivo); 90% in [15]. The log partition coefficient (LogP) in series [6] (Method C (HPLC, reverse phase C18)) is recorded as 2.15. Moreover, the “Inhibition of DON/AcDON in %” value in series [7] (50 µM) came to 100%. Further, in series [8] (50 µM), the “Growth inhibition … in %” value is recorded as 91%.
As for `O=C(Nc1cc(-c2c(-c3ccc(F)cc3)nn3c2OCCC3)ccn1)C1CCOCC1` [Example 28], the efficacy amounted to 88% in [1] (in vivo); 94% in series [2] (in vivo); 95% in [3] (in vivo); 100% in series [4] (in vivo); 92% in series [5] (in vivo); 95% in series [9] (in vivo). The efficacy in series [10] (in vivo) was determined as 100%; in series [11] (in vivo) it was 86%; in series [12] (in vivo) it was 94%; in series [13] it was 98%; in [14] (in vivo), 95%; in series [15], 100%. For the same molecule, in [6] (setting [16]), the lipophilicity (LogP) is reported as 1.37. The “Inhibition of DON/AcDON in %” value in [7] (at 50 μM) is given as 99%. Also, the “Growth inhibition … in %” value in series [8] (at 50 μM) is given as 94%.
